Values quoted from earlier work as cited in PMC8637765 (RSC Chemical Biology, 2021).

Tested on: cancer cells

For `O=C(Cc1ccccc1)Nc1nnc(CCSCCc2nnc(NC(=O)Cc3ccccc3)s2)s1` [BPTES, bis-2-(5-phenylacetamido-1,3,4-thiadiazol-2-yl)ethyl sulfide], the “Growth inhibition at the cellular level” value is listed as “partial growth inhibition”.

For `O=C(Cc1cccc(OC(F)(F)F)c1)Nc1ccc(CCCCc2nnc(NC(=O)Cc3ccccn3)s2)nn1` [CB-839], the “Growth inhibition at the cellular level” value is listed as “partial growth inhibition”.
